Test results: US7803930B2, “Antisense modulation of apolipoprotein B-expression” (Isis Pharmaceuticals, Inc., priority 2002, dated 2010)
In the oligonucleotide strings, read from the 5' end, every base follows the letter of its sugar. An asterisk marks phosphorothioate; unmarked linkages are phosphodiester. Other units and linkages are bracketed, terminal groups are in braces. A string of capitals states the bases alone. e = 2'-O-(2-methoxyethyl) (MOE); [5mC] = 5-methylcytosine; d = 2'-deoxy (DNA)

Legend:
[1] = system: mouse apolipoprotein B mRNA; assay: Inhibition of mouse apolipoprotein B mRNA levels in primary mouse hepatocytes, real-time PCR; assay type: cell-based; details: for % INHIB: Table 3, 150 nM, averages from two experiments; for Percent Inhibition 50 nM: Table 4, 50 nM; for Percent Inhibition 150 nM: Table 4, 150 nM; for Percent Inhibition 300 nM: Table 4, 300 nM
Description: Primary mouse hepatocytes were prepared from CD-1 mice purchased from Charles River Labs (Wilmington, Mass.) and were routinely cultured in Hepatoyte Attachment Media (Gibco) supplemented with 10% Fetal Bovine Serum (Gibco/Life Technologies, Gaithersburg, Md.), 250 nM dexamethasone (Sigma), and 10 nM bovine insulin (Sigma). Cells were seeded into 96-well plates (Falcon-Primaria #3872) at a density of 10000 cells/well for use in RT-PCR analysis.
When cells reached 80% confluency, they were treated with oligonucleotide. For cells grown in 96-well plates, wells were washed once with 200 μL OPTI-MEM™-1 reduced-serum medium (Gibco BRL) and then treated with 130 μL of OPTI-MEM™-1 containing 3.75 μg/mL LIPOFECTIN™ (Gibco BRL) and the desired concentration of oligonucleotide. After 4-7 hours of treatment, the medium was replaced with fresh medium. Cells were harvested 16-24 hours after oligonucleotide treatment.
Quantitation of apolipoprotein B mRNA levels was determined by real-time quantitative PCR using the ABI PRISM™ 7700 Sequence Detection System (PE-Applied Biosystems, Foster City, Calif.) according to manufacturer's instructions. This is a closed-tube, non-gel-based, fluorescence detection system which allows high-throughput quantitation of polymerase chain reaction (PCR) products in real-time. As opposed to standard PCR, in which amplification products are quantitated after the PCR is completed, products in real-time quantitative PCR are quantitated as they accumulate. This is accomplished by including in the PCR reaction an oligonucleotide probe that anneals specifically between the forward and reverse PCR primers, and contains two fluorescent dyes. A reporter dye (e.g., JOE, FAM, or VIC, obtained from either Operon Technologies Inc., Alameda, Calif. or PE-Applied Biosystems, Foster City, Calif.) is attached to the 5′ end of the probe and a quencher dye (e.g., TAMRA, obtained from either Operon Technologies Inc., Alameda, Calif. or PE-Applied Biosystems, Foster City, Calif.) is attached to the 3′ end of the probe. When the probe and dyes are intact, reporter dye emission is quenched by the proximity of the 3′ quencher dye. During amplification, annealing of the probe to the target sequence creates a substrate that can be cleaved by the 5′-exonuclease activity of Taq polymerase. […] With each cycle, additional reporter dye molecules are cleaved from their respective probes, and the fluorescence intensity is monitored at regular intervals by laser optics built into the ABI PRISM™ 7700 Sequence Detection System. In each assay, a series of parallel reactions containing serial dilutions of mRNA from untreated control samples generates a standard curve that is used to quantitate the percent inhibition after antisense oligonucleotide treatment of test samples.
Probes and primers to mouse apolipoprotein B were designed to hybridize to a mouse apolipoprotein B sequence, using published sequence information (GenBank accession number M35186, incorporated herein as SEQ ID NO: 10). For mouse apolipoprotein B the PCR primers were: forward primer: CGTGGGCTCCAGCATTCTA (SEQ ID NO: 11) reverse primer: […] (SEQ ID NO: 12) and the PCR probe was: FAM-[…]-TAMRA SEQ ID NO: 13) where FAM (PE-Applied Biosystems, Foster City, Calif.) is the fluorescent reporter dye) and TAMRA (PE-Applied Biosystems, Foster City, Calif.) is the quencher dye. For mouse GAPDH the PCR primers were: forward primer: […] (SEQ ID NO: 14) reverse primer: […] (SEQ ID NO:15) and the PCR probe was: 5′ JOE-[…]-TAMRA 3′ (SEQ ID NO: 16) where JOE (PE-Applied Biosystems, Foster City, Calif.) is the fluorescent reporter dye) and TAMRA (PE-Applied Biosystems, Foster City, Calif.) is the quencher dye.
In accordance with the present invention, a series of oligonucleotides was designed to target different regions of the mouse apolipoprotein B RNA, using published sequence (GenBank accession number M35186, incorporated herein as SEQ ID NO: 10). […]

[2] = LDLr(-/-) mice dose response (Example 44): liver enzyme, cholesterol and triglyceride levels; assay type: in vivo, mouse; details: 50 mg/kg i.p. twice a week, six weeks
Description: LDLr(−/−) mice, purchased from Taconic (Germantown, N.Y.) were used to evaluate antisense oligonucleotides for their potential to lower apolipoprotein B mRNA or protein levels, as well as phenotypic endpoints associated with apolipoprotein B. LDLr(−/−) mice were separated into groups of males and females. LDLr(−/−) mice were dosed intraperitoneally twice a week for six weeks with either 10, 25, or 50 mg/kg of ISIS 147764 (SEQ ID NO: 109) or ISIS 270906 (SEQ ID NO: 856) which is a 4 base mismatch of ISIS 147764, or with saline, or 20 mg/kg of Atorvastatin. At study termination animals were sacrificed and evaluated for several phenotypic markers.

Substance	% INHIB [1] [%]	also measured
147501 (e[5mC]*eT*eT*eG*eG*dT*dT*dA*dA*dA*d[5mC]*dT*dA*dA*dT*eG*eG*eT*eG*e[5mC]; antisense) [compound 147501]	18	
147502 (eA*eT*eG*eG*eG*dA*dG*d[5mC]*dA*dT*dG*dG*dA*dG*dG*eT*eT*eG*eG*e[5mC]; antisense) [compound 147502]	16	
147503 (eA*eA*eT*eG*eG*dA*dT*dG*dA*dT*dG*dA*dA*dA*d[5mC]*eA*eG*eT*eG*eG; antisense) [compound 147503]	26	
147505 (eG*eG*eA*eA*eG*dT*dG*dA*dG*dA*d[5mC]*dT*dT*dT*d[5mC]*eT*eA*eA*eG*e[5mC]; antisense) [compound 147505]	76	
147506 (eA*eG*eG*eA*eA*dG*dG*dA*dA*d[5mC]*dT*d[5mC]*dT*dT*dG*eA*eT*eA*eT*eT; antisense) [compound 147506]	58	
147507 (eA*eT*eT*eG*eG*d[5mC]*dT*dT*d[5mC]*dA*dT*dT*dG*dG*d[5mC]*eA*eA*e[5mC]*eA*e[5mC]; antisense) [compound 147507]	81	
147759 (eA*eG*eG*eT*eG*dA*dG*dG*dA*dA*dG*dT*dT*dG*dG*eA*eA*eT*eT*e[5mC]; antisense) [compound 147759]	19	
147761 (eG*eT*eT*e[5mC]*eA*dT*dG*dG*dA*dT*dT*d[5mC]*d[5mC]*dT*dT*e[5mC]*eA*eG*eG*eA; antisense) [compound 147761]	45	
147762 (eA*eT*eG*e[5mC]*eT*d[5mC]*d[5mC]*dA*dT*dT*d[5mC]*dT*d[5mC]*dA*d[5mC]*eA*eT*eG*e[5mC]*eT; antisense) [compound 147762]	46	
147763 (eT*eG*e[5mC]*eG*eA*d[5mC]*dT*dG*dT*dG*dT*d[5mC]*dT*dG*dA*eT*eT*eT*e[5mC]*e[5mC]; antisense) [compound 147763]	34	
147765 (eA*eG*eG*e[5mC]*e[5mC]*d[5mC]*dA*dG*dT*dT*d[5mC]*d[5mC]*dA*dT*dG*eA*e[5mC]*e[5mC]*e[5mC]*eT; antisense) [compound 147765]	59	
147766 (eG*eG*eA*eG*e[5mC]*d[5mC]*d[5mC]*dA*d[5mC]*dG*dT*dG*d[5mC]*dT*dG*eA*eG*eA*eT*eT; antisense) [compound 147766]	59	
147767 (e[5mC]*eG*eT*e[5mC]*e[5mC]*dT*dT*dG*dA*dG*d[5mC]*dA*dG*dT*dG*e[5mC]*e[5mC]*e[5mC]*eG*eA; antisense) [compound 147767]	5	
147768 (e[5mC]*e[5mC]*e[5mC]*eA*eT*dA*dT*dG*dG*dA*dG*dA*dA*dA*dT*e[5mC]*e[5mC]*eT*eT*e[5mC]; antisense) [compound 147768]	24	
147769 (e[5mC]*eA*eT*eG*e[5mC]*d[5mC]*dT*dG*dG*dA*dA*dG*d[5mC]*d[5mC]*dA*eG*eT*eG*eT*e[5mC]) [compound 147769]	89	Percent Inhibition 50 nM [1]: 3%; Percent Inhibition 150 nM [1]: 14%; Percent Inhibition 300 nM [1]: 28%
147770 (eG*eT*eG*eT*eT*dG*dA*dA*dT*d[5mC]*d[5mC]*d[5mC]*dT*dT*dG*eA*eA*eA*eT*e[5mC]; antisense) [compound 147770]	67	
147771 (eG*eG*eT*eA*eA*dA*dG*dT*dT*dG*d[5mC]*d[5mC]*d[5mC]*dA*dT*eG*eG*e[5mC]*eT*eG; antisense) [compound 147771]	68	
147772 (antisense eG*eT*eT*eA*eT*dA*dA*dA*dG*dT*d[5mC]*d[5mC]*dA*dG*d[5mC]*eA*eT*eT*eG*eG) [compound 147772]	78	
147773 (antisense e[5mC]*eA*eT*e[5mC]*eA*dG*dA*d[5mC]*dG*dT*dG*dA*dT*dG*dT*eT*e[5mC]*e[5mC]*e[5mC]*eT) [compound 147773]	85	
147774 (antisense eT*eG*eG*e[5mC]*eT*dA*dG*dT*dT*dT*d[5mC]*dA*dA*dT*d[5mC]*e[5mC]*e[5mC]*e[5mC]*eT*eT) [compound 147774]	84	
147775 (antisense e[5mC]*eT*eG*eT*e[5mC]*dA*dT*dG*dA*d[5mC]*dT*dG*d[5mC]*d[5mC]*d[5mC]*eT*eT*eT*eA*e[5mC]) [compound 147775]	52	
147776 (antisense eG*e[5mC]*eT*eT*eG*dA*dA*dG*dT*dT*d[5mC]*dA*dT*dT*dG*eA*eG*eA*eA*eT) [compound 147776]	92	Percent Inhibition 50 nM [1]: 0%; Percent Inhibition 150 nM [1]: 17%; Percent Inhibition 300 nM [1]: 44%
147778 (antisense eT*e[5mC]*eA*eG*eA*dT*dA*dT*dA*d[5mC]*dA*dT*dT*dG*dG*e[5mC]*eT*eT*e[5mC]*eA) [compound 147778]	14	
270906 (antisense GTCCCTCAACATCTGAATGC; listed as DNA, chemistry not given here) [compound 270906]		Lipoproteins CHOL ([2]; female LDLr(-/-) mice): 564.6 mg/dL; Lipoproteins HDL ([2]; female LDLr(-/-) mice): 200.0 mg/dL; Lipoproteins LDL ([2]; female LDLr(-/-) mice): 310.0 mg/dL; Lipoproteins TRIG ([2]; female LDLr(-/-) mice): 240.4 mg/dL; Liver Enzymes ALT ([2]; female LDLr(-/-) mice): 88.6 IU/L; Liver Enzymes AST ([2]; female LDLr(-/-) mice): 96.0 IU/L; Lipoproteins CHOL ([2]; male LDLr(-/-) mice): 941.0 mg/dL; Lipoproteins HDL ([2]; male LDLr(-/-) mice): 244.2 mg/dL; Lipoproteins LDL ([2]; male LDLr(-/-) mice): 541.9 mg/dL; Lipoproteins TRIG ([2]; male LDLr(-/-) mice): 844.8 mg/dL; Liver Enzymes ALT ([2]; male LDLr(-/-) mice): 348.0 IU/L; Liver Enzymes AST ([2]; male LDLr(-/-) mice): 167.4 IU/L
